Laboratory results as given in patent publication US12006310B2, “Preparation and application of triterpenoids with effect of improving glucose and lipid metabolism disorders” (SERICULTURAL&AGRI-FOOD RESEARCH INSTITUTE GUANGDONG ACADEMY …, priority 2022, dated 2024).
Read-outs that look alike come from different tables or passages of the source.

Experiments:
[1] = system: primary isolated hepatic parenchymal cells of SD rats; experiment: Hepatic gluconeogenesis inhibitory activity in primary hepatocytes; format: cell-based; details: for inhibition at 20 µM / inhibition at 40 µM: Rattus norvegicus, Hepatocyte, read-out: hepatic gluconeogenesis inhibitory activity
Excerpt: In this embodiment, primary isolated hepatic parenchymal cells of SD rats (purchased from Experimental Animal Center of Southern Medical University) were used as a model, and berberine, a traditional Chinese medicine as a hypoglycemic agent, was used as a positive control to evaluate an impact of the novel triterpenoid compound (23R, 25E)-3β-hydroxy-23-methoxycucurbita-6,25-dien-5β,19-olide3-O-β-d-allopyranoside and Momordicoside G, and compositions thereof in different proportions (novel triterpenoid compound:Momordicoside G=1:0.5, 1:1.0, or 1:1.5) on hepatic gluconeogenesis, thereby further elaborating beneficial effects of the present invention. The process was as follows:
In-situ perfusion digestion was used to digest SD rat liver with type IV collagenase. After being dispersed, hepatocytes were transferred to a 49% Percoll separation solution for centrifugation. After supernatant was discarded, the cells adhered for 6 hours to a 24-well plate coated with 0.2% gelatin. After starvation in a serum-free low-sugar medium for 8 hours, the supernatant was discarded, the cells were washed with PBS buffer, and then a reaction solution (sugar-free DMEM containing 2 mM sodium pyruvate and 20 mM sodium lactate) was added, waiting for a sample test.
Triterpenoid compounds (a novel triterpenoid compound and Momordicoside G) were dissolved in dimethyl sulfoxide (DMSO) to prepare […] mother liquor. Through dilution with the foregoing reaction solution, the final concentrations of the triterpenoid compounds finally added into cell culture wells were 20 μM and 40 μM respectively, and the final concentration of the DMSO was 0.4%. A negative control was a reaction solution containing the DMSO with the same concentration (0.4%). Berberine, a positive control, was prepared into 40 mM with ultrapure water, the final concentrations for the test were 20 μM and 40 μM, and the final concentration of the DMSO was kept at 0.4%. To-be-tested samples were added into the cell reaction solution, and continued to be cultured for 6 hours. Then the glucose concentration in the culture medium (that is, the reaction solution) of each well was measured, and then the medium was discarded. After being washed with PBS, the cells were lysed with 250 mM NaOH, and the protein concentration was measured by using a Coomassie brilliant blue method. By reading an absorbance value, the concentration of glucose in the medium in all sample wells and the concentration of protein after lysis were determined by using a standard curve method, and a ratio of the two was used to measure an average gluconeogenesis level of the cells in the wells.

3T3-L1 preadipocytes = experiment: Inhibitory activity against 3T3-L1 preadipocyte-induced differentiation (oil red O staining); format: cell-based, mouse; details: for content of lipid droplets after oil red O staining: 20 μM and 40 μM, compared with differentiation solution group
Protocol: A mouse embryonic fibroblast 3T3-L1 cell line (preadipocytes) was purchased from Shanghai Cell Bank, Chinese Academy of Sciences.
In the test, samples fell into an undifferentiation control group (cultured with a normal DMEM), a negative control group (cultured with a DMEM containing a differentiation solution), and a sample intervention group [cultured with a DMEM containing a differentiation solution+a or 40 μM triterpenoid compound or triterpenoid composition (novel triterpenoid compound:Momordicoside G=0.5, 1.0, or 1.5)]. Differentiation was induced by using a methylisobutylxanthine, dexamethasone and insulin, (MDI) induction medium (the induction medium is a differentiation solution, and the differentiation solution includes a high-sugar DMEM containing 0.5 mmol/L IBMX, 1 μmol/L DEX, 10 mg/L insulin, and 10% FCS). 3T3-L1 preadipocytes were cultured in an incubator with 5% CO2 and 37° C. saturated humidity, and cultured in the DMEM containing 10% FCS until the density of monolayer adherent cells was greater than or equal to 90%. After being washed with Hanks' balanced salt solution (HBSS), the cells were digested by trypsin, and then inoculated into a 6-well culture plate (1×10^5 cells/well). After cell contact inhibition, a fresh DMEM containing 10% FCS was used for fusion culture for 2 days. On the 3rd day (that is, the 0th day of differentiation), the cells were cultured in the differentiation solution for culture, and 0.1% DMSO and a novel triterpenoid compound (23R, 25E)-3β-hydroxy-23-methoxycucurbita-6,25-dien-5β,19-olide3-O-β-d-allopyranoside with concentration gradients of 20 μM and 40 μM or known compound Momordicoside G or a composition of the two were added in the sample intervention group. 0.1% DMSO was added in the negative control group. On the 2nd day of differentiation, the medium was replaced with a DMEM containing only 10 mg/L insulin and 10% FCS, the samples of each group continued to be cultured, and the medium was replaced once every 2 days until the experiment ended on the 8th day of differentiation. After the experiment ended, the medium was discarded, the cells were washed twice with cold PBS, and the cells were fixed with 4% paraformaldehyde solution for 60 min. After paraformaldehyde was removed and PBS was added for washing, the fixed cells were stained with an oil red O dye kit (Solarbio, G1262-4) for 1 hour, and the cells were washed with 60% isopropanol for 3 times to remove the uncolored oil red O dye and were photographed for observation. After the observation, the cells were lysed with lysate (containing 4% NP-40), and an absorbance value at 490 nm was measured, and calculated by using an OD value.

[2] = 20 μM, 6 hours culture, primary hepatocytes
[3] = 40 μM, 6 hours culture, primary hepatocytes

Compound: COc1ccc2cc3[n+](cc2c1OC)CCc1cc2c(cc1-3)OCO2 [berberine]
- inhibition at 20 µM [1, 2]: 15.6%
- inhibition at 40 µM [1, 3]: 35.2%

Compound: COC(C=C(C)C)C[C@@H](C)[C@H]1CC[C@@]2(C)C3C=CC45OC(=O)[C@]3(CC[C@]12C)C4CC[C@H](O[C@@H]1O[C@H](CO)[C@H](O)[C@H](O)[C@H]1O)C5(C)C (stereo partly drawn) [novel triterpenoid compound, (23R, 25E)-3β-hydroxy-23-methoxycucurbita-6,25-dien-5β,19-olide3-O-β-d-allopyranoside]
- inhibition at 20 µM ([1]; 6 h): 32.1%
- inhibition at 40 µM ([1]; 6 h): 28.9%
- content of lipid droplets after oil red O staining (3T3-L1 preadipocytes): decreased significantly
- inhibition at 20 µM (3T3-L1 preadipocytes; Mus musculus, 3T3-L1, 20 μM, 8th day of differentiation, oil red O, absorbance 490 nm, vs differentiation solution group, read-out: inhibition rate on differentiation of 3T3-L1 preadipocytes): 35.5%
- inhibition at 40 µM (3T3-L1 preadipocytes; Mus musculus, 3T3-L1, 40 μM, 8th day of differentiation, oil red O, absorbance 490 nm, vs differentiation solution group, read-out: inhibition rate on differentiation of 3T3-L1 preadipocytes): 56.4%

Compound: Momordicoside G
- hepatic gluconeogenesis inhibitory activity [1, 2]: 20.75%
- hepatic gluconeogenesis inhibitory activity [1, 3]: 34.42%
- content of lipid droplets after oil red O staining (3T3-L1 preadipocytes): decreased significantly
- inhibition rate on differentiation of 3T3-L1 preadipocytes (3T3-L1 preadipocytes; 20 μM, 8th day of differentiation, oil red O, absorbance 490 nm, vs differentiation solution group): 23.77%
- inhibition rate on differentiation of 3T3-L1 preadipocytes (3T3-L1 preadipocytes; 40 μM, 8th day of differentiation, oil red O, absorbance 490 nm, vs differentiation solution group): 51.27%
